Experiments:
[1] = tested on: delayed hypersensitivity reaction (pertussis vaccine pleurisy); test: pertussis vaccine pleurisy test in rats; assay type: in vivo, rat (male Sprague-Dawley); details: 10 mg/kg p.o.; for change in vivo at 10 mg/kg: Rattus norvegicus, po, 48 h, once daily day 10 to day 13, vs control, preliminary, read-out: Enhancement of the delayed hypersensitivity reaction assessed by the exudate vol.
In short: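 Male Sprague-Dawley rats (250-275 g, ≥10/group) sensitized day 0 with heat-killed B. pertussis in Freund's incomplete adjuvant into hind and forepaw, challenged intrapleurally day 12. Compounds in aqueous methocel given intragastrically once daily days 10-13. Pleural exudate volume measured day 14, expressed as percent of methocel control.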

[2] = tested on: delayed hypersensitivity reaction (adjuvant arthritis, Mycobacterium butyricum); test: adjuvant arthritis test in rats; assay type: in vivo, rat (male Lister hooded); details: for significant potentiating effect in the adjuvant arthritis test / change in vivo at 40 mg/kg: 40 mg/kg p.o.; for change in vivo at 10 mg/kg: 10 mg/kg p.o.
Source text: (§1) The adjuvant arthritis test in rats produces a measureable extent of a delayed hypersensitivity reaction and can be used for a determination of variations in the extent of the delayed hypersensitivity reaction upon drug administration to the host. An increase in the extent of the delayed hypersensitivity reaction upon drug administration consequently indicates enhanced cell-mediated immunity in the host.
This example illustrates the effect of the compounds of the general formula I in the adjuvant arthritis test in rats.
as §1, with “produces” for “produces a measureable extent of”, “variations” for “variations in the extent”
A modification of a method described in (12) was used. Male Lister hooded rats weighing 250-275 g were used. At least 9 animals were used in each experimental group.
A single intradermal injection of 0.5 mg/0.1 ml heat killed Mycobacterium butyricum suspended in sterile liquid paraffinum was given into the right hind foot of all rats. After this injection, day 0, the volume of the left hind paw, measured by water displacement, was followed to the end of the experiment.
The substances suspended in aqueous methocel solution 10 ml/kg were given intragastrically. The control group was given methocel solution 10 ml/kg. The different groups of animals were thus treated once daily from day -4 to day 14. The effect of the substances was assessed by the left foot volume expressed in percent after comparison with the control groups.

[3] = tested on: carrageenan-induced edema; test: carrageenan edema test in rats; assay type: in vivo, rat (female Sprague-Dawley); details: for change in vivo at 80 mg/kg: Rattus norvegicus, po, 80 mg/kg p.o., 30 min before carrageenan, edema weight 3 h after, vs control, preliminary, read-out: Potentiation of the carrageenan edema, %; for significant potentiation of the carrageenan edema: dose within the range 10-160 mg/kg p.o.
In short: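 Female Sprague-Dawley rats (110-120 g, ≥10 per group) received compound intragastrically in aqueous methocel 30 min before plantar carrageenan injection into the right hind paw. At 3 h, right minus left paw weight gave edema weight, expressed as percent of methocel controls.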

[4] = tested on: mice; details: mice p.o.; reference 13; cited from earlier work
[5] = Rattus norvegicus, po, 336 h, once daily day -4 to day 14, vs control, preliminary, read-out: Increase of the volume of the left foot

SMILES | significant potentiating effect in the adjuvant arthritis test [2] | change in vivo at 80 mg/kg [3] [%] | change in vivo at 10 mg/kg [1] [%] | change in vivo at 40 mg/kg [2, 5] [%] | significant potentiation of the carrageenan edema [3] | further results
COc1cccc2c(O)c(C(=O)Nc3ccccc3)c(=O)n(C)c12 [1:22, N-phenyl-1,2-dihydro-4-hydroxy-8-methoxy-1-methyl-2-oxo-quinoline-3-carboxamide] | significant potentiating effect | 58 |  |  |  | significant enhancing effect in the pertussis vaccine pleurisy test [1]: significant enhancing effect
CN(C(=O)c1c(O)c2ccccc2n(C)c1=O)c1ccccc1 [1:43, N-phenyl-N-methyl-1,2-dihydro-4-hydroxy-1-methyl-2-oxo-quinoline-3-carboxamide] | significant potentiating effect | 84 | 70 |  |  | change in vivo at 10 mg/kg [2, 5]: 48%
O=C(Nc1ccccc1)c1c(O)c2cccc3c2n(c1=O)CC3 [2:2, N-phenyl-1,2-dihydro-1,8-ethylene-4-hydroxy-2-oxo-quinoline-3-carboxamide] |  | 43 | 64 | 40 |  | 
O=C(Nc1ccccc1)c1c(O)c2cccc3c2n(c1=O)CCC3 [2:3, N-phenyl-1,2-dihydro-4-hydroxy-2-oxo-1,8-trimethylene-quinoline-3-carboxamide] |  | 61 | 66 | 39 |  | 
COc1c(C(=O)Nc2ccccc2)c(=O)n(C)c2ccccc12 [6:1, N-phenyl-1,2-dihydro-4-methoxy-1-methyl-2-oxo-quinoline-3-carboxamide] |  | 60 | 91 | 34 |  | 
Cn1c(=O)c(C(=O)Nc2nccs2)c(O)c2ccccc21 [7:1, N-(2-thiazolyl)-1,2-dihydro-4-hydroxy-1-methyl-2-oxo-quinoline-3-carboxamide] |  | 84 | 81 | 35 |  | change in vivo at 20 mg/kg ([2]; Rattus norvegicus, po, 336 h, 20 mg/kg p.o., once daily day -4 to day 14, vs control, preliminary, read-out: Increase of the volume of the left foot): 44%
Cn1c(=O)c(C(=O)Nc2cnccn2)c(O)c2ccccc21 [7:4, N-pyrazinyl-1,2-dihydro-4-hydroxy-1-methyl-2-oxo-quinoline-3-carboxamide] |  | 34 | 27 | 29 |  | 
CN(C)c1ccc(NC(=O)c2c(O)c3cc(N(C)C)cc4c3n(c2=O)CCC4)cc1 [13:3, N-(4-dimethylaminophenyl)-1,2-dihydro-6-dimethylamino-4-hydroxy-2-oxo-1.8-trimethylene-quinoline-3-carboxamide] | significant potentiating effect |  |  |  | potentiate significantly | significant enhancing effect in the pertussis vaccine pleurisy test [1]: significant enhancing effect
CCN(C(=O)c1c(O)c2ccccc2n(C)c1=O)c1ccccc1 [21:5, N-ethyl-N-phenyl-1,2-dihydro-4-hydroxy-1-methyl-2-oxo-quinoline-3-carboxamide] | significant potentiating effect |  | 29 |  | potentiate significantly | 
COc1ccc(N(C)C(=O)c2c(O)c3ccccc3n(C)c2=O)cc1 [21:6, N-(4-methoxyphenyl)-N-methyl-1,2-dihydro-4-hydroxy-1-methyl-2-oxo-quinoline-3-carboxamide] |  | 38 | 90 |  |  | change in vivo at 10 mg/kg [2, 5]: 41%
CN(C(=O)c1c(O)c2ccccc2n(C)c1=O)c1ccccn1 [21:7, N-methyl-N-(2-pyridyl)-1,2-dihydro-4-hydroxy-1-methyl-2-oxo-quinoline-3-carboxamide] | significant potentiating effect |  | 21 |  | potentiate significantly | 
CN(C(=O)c1c(O)c2ccccc2n(C)c1=O)c1ccc(Cl)cc1 [21:9, N-(4-chlorophenyl)-N-methyl-1,2-dihydro-4-hydroxy-1-methyl-2-oxo-quinoline-3-carboxamide] |  | 52 | 84 |  |  | change in vivo at 10 mg/kg [2, 5]: 51%
COc1ccc(N(C)C(=O)c2c(O)c3cc(OC)ccc3n(C)c2=O)cc1 [21:14, N-(4-methoxyphenyl)-N-methyl-1,2-dihydro-4-hydroxy-6-methoxy-1-methyl-2-oxo-quinoline-3-carboxamide] | significant potentiating effect |  |  |  | potentiate significantly | significant enhancing effect in the pertussis vaccine pleurisy test [1]: significant enhancing effect
CN(C(=O)c1c(O)c2ccccc2n(C)c1=O)c1ccc(F)cc1 [21:35, N-(4-fluorophenyl)-N-methyl-1,2-dihydro-4-hydroxy-1-methyl-2-oxo-quinoline-3-carboxamide] | significant potentiating effect |  |  |  | potentiate significantly | significant enhancing effect in the pertussis vaccine pleurisy test [1]: significant enhancing effect
c1ccc([C@H]2CN3CCSC3=N2)cc1 [Levamisole, levamisole, reference compound] |  |  | 13 |  |  | change in vivo at 5 mg/kg ([2]; Rattus norvegicus, po, 336 h, 5 mg/kg p.o., once daily day -4 to day 14, vs control, preliminary, read-out: Increase of the volume of the left foot): 4%; change in vivo at 10 mg/kg [2, 5]: 12%; acute LD50 [4]: 285 mg/kg

— patent US4738971A, “N-aryl-1,2-dihydro-4-substituted-1-alkyl-2-oxo-quinoline-3-carboxamides” (priority 1981, dated 1988)
